Experimental data reported in patent publication US6951647B2, “T cell binding ligand peptides and method of inducing a cellular immune response” (Cel-Sci Corporation, priority 2001, dated 2005).
Several values for one entry are separate records, joined by “and”; a condition that tells them apart may be missing. Identical values can stand only once.

Legend:
E Clade [1] = experiment: ELISA cross clade recognition by sera of immunized mice, E Clade; assay type: in vivo; settings: day 42 test bleeding, individual mouse
D Clade [2] = experiment: ELISA cross clade recognition by sera of immunized mice, D Clade; assay type: in vivo; settings: for ELISA test antigen D Clade: day 42 test bleeding, Group Average
Method: (§1) Mice in groups (5-10 animals per group as designated) are immunized with the LEAPS constructs (25 μg/dose) of SEQ ID NO's:37, 38 and 39, in 0.2 mL emulsified 1:1 with adjuvant (Seppic's ISA-51 or Corixa's microfluidized MPL S/E) on days 0 and 14. Mice are evaluated by Delayed Type of Hypersensitivity (DTH) by inoculation on day 26 with 20 μl of a solution of saline or mH (SEQ ID NO:6) (25 μg in saline) in the left or right ear respectively. The DTH response is determined by measurement of the ear thickness 48 hours later and expressed as increase in ear thickness (mm) of experimental ear compared to that of the control ear. Individual animal sera are collected for measurement of antibody on day 28, 42, 63 and 77. Sera from individual animals and group pools are evaluated for specific anti-mH antibody, for total antibody, IgG1, IgG2a and IgG3 antibody isotype and cross clade titer at selected time points as indicated.
(§2) The mouse sera for the ELISA was used at a dilution of 1:200. Again, clearly, the construct provides higher signals indicative of higher levels of the antibodies that recognized other clades besides the parental one (Clade B) of mH.
(§3) A cross clade analysis for pools of day 42 test bleedings from the same groups as used in Table 3, were obtained and the results are shown in Table 4.

D Clade [3] = experiment: as above; assay type: in vivo; settings: day 42 test bleeding, individual mouse
E Clade [4] = experiment: ELISA cross clade recognition by sera of immunized mice, E Clade; assay type: in vivo; settings: for ELISA test antigen E Clade: day 42 test bleeding, Group Average
Method: as §1, §2, §3

Peptide G [5] = experiment: Specificity analysis for the TCBL carrier, ELISA plates coated with Peptide G; assay type: in vivo, Mice; settings: individual animal
[6] = tested on: modified HGP-30 (mH, SEQ ID NO:6); experiment: Isotype analysis (ELISA) of anti-mH antibody in sera of immunized mice; assay type: in vivo; parameters: IgG1 / IgG2a / IgG2b / IgG3: unit not given here; settings: for IgG1 / IgG2a / IgG2b / IgG3: ELISA signal, day 42 test bleeding; for Ig1, serial dilution 1:200 / Ig1, serial dilution 1:800 / Ig1, serial dilution 1:3200 / Ig1, serial dilution 1:12800 / Ig1, serial dilution 1:51200 / Ig1, serial dilution 1:204800 / Ig2a, serial dilution 1:200 / Ig2a, serial dilution 1:800 / Ig2a, serial dilution 1:3200 / Ig2a, serial dilution 1:12800 / Ig2a, serial dilution 1:51200 / Ig2a, serial dilution 1:204800 / Ig2b, serial dilution 1:200 / Ig2b, serial dilution 1:800 / Ig2b, serial dilution 1:3200 / Ig2b, serial dilution 1:12800 / Ig2b, serial dilution 1:51200 / Ig2b, serial dilution 1:204800 / Ig3, serial dilution 1:200 / Ig3, serial dilution 1:800 / Ig3, serial dilution 1:3200 / Ig3, serial dilution 1:12800 / Ig3, serial dilution 1:51200 / Ig3, serial dilution 1:204800: day 28 pool
Method: as §1
The results of an isotype analysis of day 42 test bleedings with G′-mH (SEQ ID NO:37), G-mH (SEQ ID NO:38), J-mH (SEQ ID NO:39), F-mH (SEQ ID NO:40) and F-HGP-30 (SEQ ID NO:41), are shown in Table 1.
An isotype analysis for pools of day 28 test bleedings G-mH, G′-mH and m-HGP-30/KLH using either MPL S/E or ISA51 as adjuvant, are shown in Table 3.

Peptide G [7] = experiment: Specificity analysis for the TCBL carrier, ELISA plates coated with Peptide G; assay type: in vivo, Mice; settings: for A 490 1:200 dilution on plates coated with Peptide G: Average
Method: as §1
A specificity analysis for the TCBL or KLH carrier for pools of day 42 test bleedings from the G-mH, G′-mH and mH/KLH, using either MPL S/E or ISA51 as adjuvant, was carried out (all sera assayed at a dilution of 1:200) and the results are shown in Table 5. […] This observation is especially significant for vaccines used on a repetitive basis, such as, either a vaccine that requires more frequent intervals between boosters for maintenance of cellular reactivity or as a therapeutic vaccine.

modified HGP-30 = experiment: ELISA antibody screening of sera of immunized mice on modified HGP-30; assay type: in vivo; settings: for ELISA test antigen Modified HGP-30: day 42 test bleeding
Method: as §1, with “indicated. […]” for “indicated.”

B Clade = experiment: ELISA cross clade recognition by sera of immunized mice, B Clade; assay type: in vivo; settings: for ELISA test antigen B Clade: day 42 test bleeding
Method: as §1, §2, §3

C Clade = experiment: ELISA cross clade recognition by sera of immunized mice, C Clade; assay type: in vivo; settings: for ELISA test antigen C Clade: day 42 test bleeding
Method: as §1, §2, §3

[8] = day 63 test bleeding, sera 1:200, individual mouse
[9] = group without '(with MPL)' (ISA51)

Substance: NGQ EEK AGV VST GLI GGG ATL YSV HQR IDV KDT KEA LEK IEE EQN KS (DGQEEKAGVVSTGLIGGGEAQNTTYL) [SEQ ID NO: 58, Peptide G linked by GGG spacer to modified HGP-30 (mH)]
- ELISA test antigen E Clade (E Clade [1]; group (A)): 0.000
- ELISA test antigen E Clade (E Clade [1]; group (B)): 0.000
- ELISA test antigen D Clade (D Clade [2]; group (A)): 0.000
- ELISA test antigen D Clade (D Clade [2]; group (B)): 0.002
- ELISA signal on D Clade (D Clade [2]; [8]): 0.025 and 0.646 and 0.000 (6×) and 0.001 and 0.016
- ELISA test antigen D Clade (D Clade [3]; group (A)): 0.000
- ELISA test antigen D Clade (D Clade [3]; group (B)): 0.005 and 0.006 and 0.000 (4×)
- ELISA test antigen E Clade (E Clade [4]; group (A)): 0.000
- ELISA test antigen E Clade (E Clade [4]; group (B)): 0.000
- ELISA signal on E Clade (E Clade [4]; [8]): 0.000 (8×) and 0.016 and 0.504
- A 490 1:200 dilution on plates coated with Peptide G (Peptide G [5]; day 42, first set of groups (animals 4637-4648, 4674-4678)): 0.195 A 490 and 0.122 A 490 and 0.092 A 490 and 0.088 A 490 and 0.047 A 490
- A 490 1:200 dilution on plates coated with Peptide G (Peptide G [5]; day 42, second set of groups (animals 4662-4673, 4679-4683)): 0.024 A 490 and 0.044 A 490 and 0.062 A 490 and 0.033 A 490 and 0.060 A 490 and 0.151 A 490
- IgG1 ([6]; group Average): 1.400
- IgG2a ([6]; group Average): 0.367
- IgG2b ([6]; group Average): 0.478
- IgG3 ([6]; group Average): 0.531
- IgG1 ([6]; individual mouse): 1.810 and 2.606 and 1.738 and 0.123 and 1.649 and 2.651 and 0.562 and 0.431 and 0.042 and 2.391
- IgG2a ([6]; individual mouse): 0.152 and 1.386 and 0.074 and 0.005 and 0.129 and 1.619 and 0.047 and 0.031 and 0.025 and 0.200
- IgG2b ([6]; individual mouse): 0.223 and 2.038 and 0.464 and 0.017 and 0.025 and 1.613 and 0.059 and 0.038 and 0.183 and 0.123
- IgG3 ([6]; individual mouse): 0.388 and 1.817 and 0.033 and −0.013 and 0.152 and 2.378 and 0.000 and 0.106 and 0.089 and 0.358
- Ig1, serial dilution 1:200 [6, 9]: 0.507
- Ig1, serial dilution 1:800 [6, 9]: 0.173
- Ig1, serial dilution 1:3200 [6, 9]: 0.025
- Ig1, serial dilution 1:12800 [6, 9]: 0.009
- Ig1, serial dilution 1:51200 [6, 9]: 0.014
- Ig1, serial dilution 1:204800 [6, 9]: 0.000
- Ig2a, serial dilution 1:200 [6, 9]: 0.000
- Ig2a, serial dilution 1:800 [6, 9]: 0.015
- Ig2a, serial dilution 1:3200 [6, 9]: 0.000
- Ig2a, serial dilution 1:12800 [6, 9]: 0.003
- Ig2a, serial dilution 1:51200 [6, 9]: 0.006
- Ig2a, serial dilution 1:204800 [6, 9]: 0.000
- Ig2b, serial dilution 1:200 [6, 9]: 0.017
- Ig2b, serial dilution 1:800 [6, 9]: 0.000
- Ig2b, serial dilution 1:3200 [6, 9]: 0.004
- Ig2b, serial dilution 1:12800 [6, 9]: 0.001
- Ig2b, serial dilution 1:51200 [6, 9]: 0.000
- Ig2b, serial dilution 1:204800 [6, 9]: 0.000
- Ig3, serial dilution 1:200 [6, 9]: 0.009
- Ig3, serial dilution 1:800 [6, 9]: 0.002
- Ig3, serial dilution 1:3200 [6, 9]: 0.000
- Ig3, serial dilution 1:12800 [6, 9]: 0.000
- Ig3, serial dilution 1:51200 [6, 9]: 0.000
- Ig3, serial dilution 1:204800 [6, 9]: 0.000
- Ig1, serial dilution 1:200 ([6]; with MPL): 0.103
- Ig1, serial dilution 1:800 ([6]; with MPL): 0.022
- Ig1, serial dilution 1:3200 ([6]; with MPL): 0.003
- Ig1, serial dilution 1:12800 ([6]; with MPL): 0.000
- Ig1, serial dilution 1:51200 ([6]; with MPL): 0.000
- Ig1, serial dilution 1:204800 ([6]; with MPL): 0.000
- Ig2a, serial dilution 1:200 ([6]; with MPL): 0.248
- Ig2a, serial dilution 1:800 ([6]; with MPL): 0.048
- Ig2a, serial dilution 1:3200 ([6]; with MPL): 0.000
- Ig2a, serial dilution 1:12800 ([6]; with MPL): 0.000
- Ig2a, serial dilution 1:51200 ([6]; with MPL): 0.002
- Ig2a, serial dilution 1:204800 ([6]; with MPL): 0.000
- Ig2b, serial dilution 1:200 ([6]; with MPL): 0.147
- Ig2b, serial dilution 1:800 ([6]; with MPL): 0.026
- Ig2b, serial dilution 1:3200 ([6]; with MPL): 0.022
- Ig2b, serial dilution 1:12800 ([6]; with MPL): 0.006
- Ig2b, serial dilution 1:51200 ([6]; with MPL): 0.007
- Ig2b, serial dilution 1:204800 ([6]; with MPL): 0.018
- Ig3, serial dilution 1:200 ([6]; with MPL): 0.265
- Ig3, serial dilution 1:800 ([6]; with MPL): 0.044
- Ig3, serial dilution 1:3200 ([6]; with MPL): 0.006
- Ig3, serial dilution 1:12800 ([6]; with MPL): 0.001
- Ig3, serial dilution 1:51200 ([6]; with MPL): 0.000
- Ig3, serial dilution 1:204800 ([6]; with MPL): 0.000
- A 490 1:200 dilution on plates coated with Peptide G (Peptide G [7]; day 42, first set of groups): 0.099 A 490
- A 490 1:200 dilution on plates coated with Peptide G (Peptide G [7]; day 42, second set of groups): 0.062 A 490
- Reactivity toward the delivery vehicle TCBL (Peptide G [7]; day 42 sera at 1:200, Table 5, in words): minimal reactivity
- A 490 1:200 dilution on plates coated with modified HGP-30 (modified HGP-30; day 42, first set of groups (animals 4637-4648, 4674-4678), individual animal): 0.257 A 490 and 0.571 A 490 and 0.065 A 490 and 0.392 A 490 and 1.008 A 490 and 0.021 A 490
- A 490 1:200 dilution on plates coated with modified HGP-30 (modified HGP-30; day 42, first set of groups, Average): 0.386 A 490
- A 490 1:200 dilution on plates coated with modified HGP-30 (modified HGP-30; day 42, second set of groups (animals 4662-4673, 4679-4683), individual animal): 0.051 A 490 and 0.052 A 490 and 1.102 A 490 and 0.005 A 490 and 0.000 A 490 (2×)
- A 490 1:200 dilution on plates coated with modified HGP-30 (modified HGP-30; day 42, second set of groups, Average): 0.202 A 490
- ELISA test antigen Modified HGP-30 (modified HGP-30; group (A), Group Average): 0.576
- ELISA test antigen Modified HGP-30 (modified HGP-30; group (A), individual mouse): 0.470 and 1.103 and 0.046 and 0.390 and 1.297 and 0.153
- ELISA test antigen Modified HGP-30 (modified HGP-30; group (B), Group Average): 0.394
- ELISA test antigen Modified HGP-30 (modified HGP-30; group (B), individual mouse): 0.187 and 0.188 and 1.848 and 0.145 and 0.000 (2×)
- ELISA signal on modified HGP-30 (modified HGP-30; [8]): 1.831 and 2.453 and 2.530 and 1.740 and 0.398 and 1.240 and 2.665 and 1.014 and 0.444 and 0.304
- ELISA test antigen B Clade (B Clade; group (A), Group Average): 0.005
- ELISA test antigen B Clade (B Clade; group (A), individual mouse): 0.000 (5×) and 0.028
- ELISA test antigen B Clade (B Clade; group (B), Group Average): 0.022
- ELISA test antigen B Clade (B Clade; group (B), individual mouse): 0.000 (3×) and 0.006 and 0.079 and 0.046
- ELISA signal on B Clade (B Clade; [8]): 0.000 (6×) and 0.316 and 0.148 and 0.006 and 0.230
- ELISA test antigen C Clade (C Clade; group (A), Group Average): 0.018
- ELISA test antigen C Clade (C Clade; group (A), individual mouse): 0.000 (4×) and 0.004 and 0.104
- ELISA test antigen C Clade (C Clade; group (B), Group Average): 0.009
- ELISA test antigen C Clade (C Clade; group (B), individual mouse): 0.003 (2×) and 0.000 (3×) and 0.050
- ELISA signal on C Clade (C Clade; [8]): 0.125 and 0.359 and 0.238 and 0.047 and 0.005 and 0.076 and 0.643 and 0.000 (3×)
